Tests used:
kras g13d = kras g13d (Homo sapiens, UniProt P01116, G13D)
GTPase KRas [G12V] = GTPase KRas [G12V] (Homo sapiens, UniProt P01116, G12V)
GTPase KRas [G12C] = GTPase KRas [G12C] (Homo sapiens, UniProt P01116, G12C)
GTPase KRas [G12D] = GTPase KRas [G12D] (Homo sapiens, UniProt P01116, G12D)
GTPase NRas [G12C] = GTPase NRas [G12C] (Homo sapiens, UniProt P01111, G12C)
GTPase KRas = GTPase KRas (Homo sapiens, UniProt P01116)
GTPase KRas [G13C] = GTPase KRas [G13C] (Homo sapiens, UniProt P01116, G13C)
GTPase KRas [G13C], sequence (P01116 whole entry G13C): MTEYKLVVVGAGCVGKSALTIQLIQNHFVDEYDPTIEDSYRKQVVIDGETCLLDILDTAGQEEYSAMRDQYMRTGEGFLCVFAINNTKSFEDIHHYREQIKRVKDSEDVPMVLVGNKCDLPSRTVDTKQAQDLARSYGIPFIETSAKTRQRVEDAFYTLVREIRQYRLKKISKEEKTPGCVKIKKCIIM

GTPase NRas = GTPase NRas (Homo sapiens, UniProt P01111)
GTPase NRas, sequence (P01111 whole entry): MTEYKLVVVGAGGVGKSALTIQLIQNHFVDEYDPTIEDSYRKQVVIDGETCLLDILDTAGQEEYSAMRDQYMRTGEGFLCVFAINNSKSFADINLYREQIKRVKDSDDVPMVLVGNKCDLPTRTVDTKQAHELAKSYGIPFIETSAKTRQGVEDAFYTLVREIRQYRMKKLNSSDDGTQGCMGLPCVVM

GTPase NRas [Q61K] = GTPase NRas [Q61K] (Homo sapiens, UniProt P01111, Q61K)
GTPase NRas [Q61K], sequence (P01111 whole entry Q61K): as the sequence (P01111 whole entry) above, with Q61K counted along it

GTPase NRas [Q61R] = GTPase NRas [Q61R] (Homo sapiens, UniProt P01111, Q61R)
GTPase NRas [Q61R], sequence (P01111 whole entry Q61R): as the sequence (P01111 whole entry) above, with Q61R counted along it

GTPase KRas [Q61H] = GTPase KRas [Q61H] (Homo sapiens, UniProt P01116, Q61H)
GTPase KRas [Q61H], sequence (P01116 whole entry Q61H): as the sequence (P01116 whole entry G13C) above, with C13G, Q61H counted along it

GTPase KRas [G12D], sequence (P01116 whole entry G12D): as the sequence (P01116 whole entry G13C) above, with G12D, C13G counted along it
GTPase KRas [G12C], sequence (P01116 whole entry G12C): as the sequence (P01116 whole entry G13C) above, with G12C, C13G counted along it
GTPase KRas, sequence (P01116 whole entry): as the sequence (P01116 whole entry G13C) above, with C13G counted along it
GTPase KRas [G12V], sequence (P01116 whole entry G12V): as the sequence (P01116 whole entry G13C) above, with G12V, C13G counted along it
kras g13d, sequence (P01116 whole entry G13D): as the sequence (P01116 whole entry G13C) above, with C13D counted along it
GTPase NRas [G12C], sequence (P01111 whole entry G12C): as the sequence (P01111 whole entry) above, with G12C counted along it

SMILES	IC50 (kras g13d)	IC50 (GTPase KRas [G12V])	IC50 (GTPase KRas [G12C])	IC50 (GTPase KRas [G12D])	IC50 (GTPase NRas [G12C])	IC50 (GTPase KRas)	IC50 (GTPase KRas [G13C])	IC50 (GTPase NRas)	IC50 (GTPase NRas [Q61K])	IC50 (GTPase NRas [Q61R])	IC50 (GTPase KRas [Q61H])
CCN1C[C@@H](C(=O)N(C)[C@H](C(=O)N[C@H]2Cc3cc(O)cc(c3)-c3ccc4c(c3)c(c(-c3cnccc3COC)n4CC)CC(C)(C)COC(=O)[C@@H]3CCCN(N3)C2=O)C(C)C)CC1=O [US20250195521, Example A16]	in the range around 0.55 µM	in the range around 0.55 µM	0.055 µM	in the range around 5.5 µM	in the range around 0.55 µM	in the range around 0.55 µM	0.55 µM	–	–	–	–
CCn1c(-c2cnccc2COC)c2c3cc(ccc31)-c1cc(O)cc(c1)C[C@H](NC(=O)[C@H](C(C)C)N(C)C(=O)[C@@H]1NC[C@@H]3C[C@@H]31)C(=O)N1CCC[C@H](N1)C(=O)OCC(C)(C)C2 [US20250195521, Example A78]	in the range around 0.55 µM	in the range around 0.55 µM	0.55 µM	in the range around 0.55 µM	in the range around 0.55 µM	in the range around 0.55 µM	0.055 µM	–	–	–	–
CCn1c(-c2cccnc2[C@H](C)OC)c2c3cc(ccc31)-c1cc(O)cc(c1)C[C@H](NC(=O)[C@H](C(C)C)N(C)C(=O)[C@H]1CCN(C(=O)OC(C)C)C1)C(=O)N1CCC[C@H](N1)C(=O)OCC(C)(C)C2 [US20250195521, Example A117]	–	> 10 µM	–	–	–	–	–	–	–	–	–
CCn1c(-c2cccnc2[C@H](C)OC)c2c3cc(ccc31)-c1csc(n1)C[C@H](NC(=O)[C@H](C(C)C)N(C)C(=O)OC)C(=O)N1CCC[C@H](N1)C(=O)OCC(C)(C)C2 [US20250195521, Example A138]	in the range around 5.5 µM	in the range around 0.55 µM	0.55 µM	in the range around 5.5 µM	in the range around 0.55 µM	in the range around 0.55 µM	0.55 µM	in the range around 0.55 µM	in the range around 0.55 µM	in the range around 0.55 µM	in the range around 0.55 µM
CCn1c(-c2cccnc2[C@H](C)OC)c2c3cc(ccc31)-c1cc(O)cc(c1)C[C@H](NC(=O)C1[C@H]3COC[C@@H]13)C(=O)N1CCC[C@H](N1)C(=O)OCC(C)(C)C2 (stereo not given in full) [US20250195521, Example A253]	–	–	–	> 10 µM	–	–	–	–	–	–	–
CCn1c(-c2cccnc2[C@H](C)OC)c2c3cc(ccc31)-c1csc(n1)C[C@H](NC(=O)[C@H](C(C)C)N(C)C(=O)N1CCC[C@@H](N(C)C)CC1)C(=O)N1CCC[C@H](N1)C(=O)OCC(C)(C)C2 [US20250195521, Example A494]	–	–	0.055 µM	in the range around 0.055 µM	in the range around 0.055 µM	in the range around 0.055 µM	–	in the range around 0.055 µM	in the range around 0.055 µM	in the range around 0.055 µM	in the range around 0.055 µM

Reference: BindingDB's records for patent US20250195521 (Revolution Medicines, 2025)
